Experimental data published in US5310741A, “TAN-1251 compounds and their production from penicillium thomii” (Takeda Chemical Industries, Ltd., priority 1990, dated 1994).

What was measured:
[1] = format: physicochemical
Source text: Below presented as the physicochemical properties of the respective species of TAN-1251 prepared in the Examples given hereinafter.

Muscarinic receptor = format: binding, Wistar rat; conditions: 3H-QNB radioligand, room temperature, 60 minutes; read-out: Radio receptor assay IC50
[2] = system: acetylcholine-induced contraction of the isolated Guinea pig ileum; assay: Antagonizing activity against acetylcholine-induced contraction of the isolated Guinea pig ileum; parameters: species or system Guinea pig (Std Hartley); conditions: Cavia porcellus, 5 min; acetylcholine 1×10^-7 M, 37° C., 5 minutes equilibration; read-out: Guinea pig ileal contractility ED50 (50% inhibition of the maximal contraction)
Protocol: (b) Antagonizing activity against acetylcholine-induced contraction of the isolated Guinea pig ileum
A Guinea pig (Std Hartley, male, 250 g, Japan SLC) deprived of food for 24 hours was subjected to brain concussion and after exsanguination from the carotid artery, the ileum was isolated. An ileal strip, about 3 cm long, was prepared and suspended in a Magnus tube containing 20 ml of Tyrode solution. At a constant bath temperature of 37° C., a mixed gas (95% O2 -5% CO2) was bubbled through the bath. The sample was added and after 5 minutes of equillibration, acetylcholine (Daiichi Seiyaku, Japan) was added at a final concentration of 1×10^-7 M to induce contraction of the ileal strip. The contraction was recorded through an isotonic transducer (ME-4013, Suruga Electronics, Japan) on a recorder (Rectiholy 8K, Japan Electronics Sanei, Japan). The activity of the same was expressed in ED50 representing 50% inhibition of the maximal contraction.

mice = assay: Acute toxicity, oral administration in mice; format: in vivo; conditions: 100 mg/kg
Protocol: For assessment of the acute toxicity of TAN-1251, an oral administration experiment using TAN-1251A and B was performed in mice.

SMILES | Properties (basicity and liposolubility) [1] | IC50 (Muscarinic receptor) [nM] | IC50 [2] [nM] | toxic signs (acute toxicity) (mice)
CC(C)=CCOc1ccc(CC2CN(C)C3CN2C2(CCC(=O)CC2)C3)cc1 (stereo not shown) [Compound 4] | Basic and liposoluble | – | – | –
CC(C)=CCOc1ccc(CC2=CN(C)C3CN2C2(CCC(=O)CC2)C3)cc1 (stereo not shown) [Compound 3] | Basic and liposoluble | – | – | –
CC(C)=CCOc1ccc(C=C2CN(C)C3CN2C2(CCC(=O)CC2)C3)cc1 (stereo not shown) [Compound 1] | Basic and liposoluble | 5.7 | 8 | no toxic signs were observed
CC(C)=CCOc1ccc(C=C2CN(C)C3CN2C2(CCC(=O)C(O)C2)C3)cc1 (stereo not shown) [Compound 2] | Basic and liposoluble | 0.13 | 13 | no toxic signs were observed
